From article PMC6150007 (Molecules : A Journal of Synthetic Chemistry and Natural …, 2017)
Converted amounts (≈) assume the structure as drawn. Where two headings read alike, the source gives them in different places.

Columns and labels:
HeLa cells = experiment: MTT cell viability assay; type: cell-based, human; conditions: 100 µM, 24 h
Source text: (§1) For this purpose, the MTT cell viability assay was used. The MTT assay is a standard cell viability assay, measuring mitochondrial activity in live (metabolically viable) cells. Metabolically active mitochondria in viable cells have the ability to reduce MTT to coloured formazan crystals that can be quantitated spectrophotometrically. The presence of a toxic agent will reduce cell viability and thus limit the reduction of MTT to the formazan product. For this study, HeLa cells were selected. This selection was based on the high growth rate of HeLa cells and on the observation that these cells are frequently used to measure cell viability in the presence of toxic agents.
(§2) HeLa cells were maintained in 250 cm^2 flasks in 30 mL Dulbecco’s Modified Eagle Medium (DMEM) containing 10% fetal bovine serum, 1% penicillin (10,000 units/mL)/streptomycin (10 mg/mL) and 0.1% fungizone (250 µg/mL). The cells were incubated at 37 °C in an atmosphere of 10% CO2. Once confluent, the cells were seeded at 500,000 cells/well in 24-well plates and incubated for 24 h. A volume of 3 mL trypsin/EDTA (0.25%/0.02%) was used to facilitate cell detachment and the counting of cells was done with a haemocytometer. The wells were subsequently rinsed with 0.5 mL DMEM containing no fetal bovine serum. A volume of 0.99 mL DMEM (containing no fetal bovine serum) was subsequently added to each well followed by 10 µL of the test drug. Stock solutions of the test drugs were prepared in deionised water and sterilised via a 0.22 µm syringe filter. In each 24-well plate, wells were reserved as positive controls (100% cell death via lyses with 0.3% formic acid) and negative controls (0% cell death as a result of no treatment). The well-plates were incubated for a further 24 h after which the culture medium was aspirated from the cells. The wells were washed twice with 0.5 mL/well phosphate-buffered saline (PBS) and 200 µL of 0.05% MTT reagent (3-(4,5-dimethylthiazol-2-yl)-2,5-diphenyltetrazolium bromide) in PBS was added to each well. The well-plates were incubated at 37 °C for 2 h in the dark, the MTT reagent was aspirated from the wells and 250 µL isopropanol was added to each well. The well-plates were then incubated at room temperature for 5 min to dissolve the purple formazan crystals, whereafter 100 µL of the isopropanol phase was transferred to a 96-well plate. The absorbance of each isopropanol phase was measured spectrophotometrically at 560 nm.

MTT cell viability assay = type: cell-based, human; conditions: human, HeLa cells, read-out: percentage of viable cells remaining
Source text: as §1, §2

[1] = Plasma stability, human plasma; type: in vitro ADME; conditions: 37 °C, approx. 200 µM spiked
Procedure: (§3) The effluent was monitored at 276 nm. […] The effluent was monitored at 280 nm.
(§4) Plasma was collected in 0.5 mL MiniCollect® heparin plasma tubes (Greiner Bio-One, Kremsmünster, Austria) and centrifuged at 5500 rpm. Liver and brain tissue were collected, placed on ice and rinsed with 0.25 M sucrose dissolved in water. Sucrose solution was added to the tissue at a ratio 1:3 (w/v), the tissues were cut into small pieces using scissors and homogenised by 2 passes (60 s each) using a Potter–Elvehjem homogeniser (1200 rev/min, Potter–Elvehjem, Kennesaw, GA, USA). Care was taken to cool the homogeniser in ice during this procedure. […] The stock solution was immediately diluted to approximately 200 µM into plasma or tissue homogenate (preheated to 37 °C) and the resulting mixtures were analysed by the HPLC method described above. For this purpose, 100 µL of the spiked plasma or tissue homogenate was added to 300 µL acetonitrile (containing formic acid 1%) in a Phree tube. The tube was vortexed for 2 min and filtered under vacuum (9–10 mmHg). The collected solvent was evaporated under a stream of air, and the residue was redissolved in 100 µL methanol. A volume of 300 µL water was added and 20 µL of the resulting solution was analysed by the HPLC system. […] The concentration of lazabemide was also determined.

[2] = Shake-flask logD determination (n-octanol/buffer); conditions: n-octanol/potassium phosphate buffer 100 mM
Procedure: (§5) n-Octanol (analytical reagent from Sigma-Aldrich) and the appropriate buffer were mutually saturated in a separatory funnel. Potassium phosphate buffer (100 mM) at pH 6.4, 7.4 and 7.8 served as the aqueous buffer phases. […] The vessels were shaken by hand for 5 min and centrifuged at 4000× g for 10 min. […] The logD value at a given pH is equal to the logarithm of the octanol/buffer partition coefficients (D). […] LogD values are given as mean ± standard deviation of triplicate determinations. Using the same protocol as above, the logD values at pH 6.4, 7.4 and 7.8 for lazabemide were also determined.

in vitro = conditions: PAMPA
Procedure: (§6) The HPLC system consisted of an Agilent 1200 series HPLC system with a binary gradient pump, autosampler and vacuum degasser coupled to an Agilent 1200 series variable-wavelength detector (Santa Clara, CA, USA). The analyses were carried out with Venusil XBP C18 column (4.60 mm × 150 mm, 5 μm, Bonna-Agela Technologies, Wilmington, DE, USA). […] The effluent was monitored at 276 nm. […] The effluent was monitored at 280 nm. A volume of 20 µL of the samples was injected into the HPLC system.
(§7) The precoated parallel artificial membrane permeability assay (PAMPA) plate system was obtained from BD Biosciences. Prior to use, the pre-coated PAMPA plates were warmed to room temperature for at least 30 min. Once warmed to room temperature, the plate system was used within 24 h. A volume of 300 µL of the test compound solution in potassium phosphate buffer (100 mM, pH 6.4, 7.4 and 7.8) or in sodium acetate buffer (50 mM, pH 3.7, 4.7 and 5.7) was added per well in the receiver/donor plate (bottom). The final concentration of the test compounds was 200 µM in each well. A volume of 200 µL of potassium phosphate buffer (100 mM, pH 6.4, 7.4 and 7.8) or sodium acetate buffer (50 mM, pH 3.7, 4.7 and 5.7) was then added per well to the filter/acceptor plate (top). The filter plate was placed on the receiver plate by slowly lowering the precoated PAMPA plate until it was seated on the receiver plate. The assembly was incubated at room temperature for 5 h. The precoated PAMPA plate and the receiver plate were separated. The compound concentrations were determined using the HPLC system described above. The permeability values are given as mean ± standard deviation of triplicate determinations [38].

[3] = Chemical stability in aqueous buffer (HPLC); type: physicochemical; conditions: 50 µM, room temperature
Procedure: as §3
The stock solution was immediately diluted to 50 µM and the resulting solution was analysed by the HPLC method described above. The first injection served as reference point, after which the same solution was again injected at 1 h, 3 h, 6 h, 9 h and 11 h. During this time, the test solution remained at room temperature in the autosampler tray. The stabilities of the prodrug in the selected buffer phases are reported as the percentage mean ± standard deviation of the first injection, which served as reference point.

[4] = Solubility in water and potassium phosphate buffer; type: physicochemical; conditions: thermodynamic from solid, 37 °C
Procedure: This yielded a theoretical concentration of 6.0 mg/mL. The tubes were agitated for 24 h in a water bath at 37 °C and were subsequently centrifuged at 16,000× g for 10 min. The samples were filtered through a 0.22 µm syringe filter and diluted 150-fold into water or potassium phosphate buffer (100 mM, pH 7.4). The absorbances of the resulting solutions were recorded at a wavelength of maximal absorbance of 276 nm.

[5] = system: striatal monoamines and metabolites; conditions: for concentration reached in the brain: mouse, in vivo
Procedure: The delivery of dopamine by the prodrug was thus indirectly assessed by measuring dopamine levels in the striatal tissue of mice following treatment with the prodrug. For this purpose, the measurement of dopamine metabolites and other monoamine neurotransmitters and their metabolites was also included. […] Another four groups (n = 3 mice/group) were treated in the same manner by intraperitoneal injection. The animals were sacrificed 60 min after treatment, the striata were dissected and the concentrations of dopamine, 3,4-dihydroxyphenylacetic acid (DOPAC), homovanillic acid (HVA), noradrenaline, serotonin and 5-hydroxyindoleacetic acid (HIAA) were measured [40].
Male C57BL/6 mice were weighed and allocated into 4 groups of 3 mice each. […] A second set of 4 groups (n = 3) were treated in the same manner by intraperitoneal injection. All solutions were prepared in sterile saline and administered at volumes of 0.1 mL for oral gavage and 0.2 mL for intraperitoneal injection. The animals were euthanised 60 min after treatment and the striata were dissected and stored at −80 °C until the day of the experiment. The concentrations of dopamine, 3,4-dihydroxyphenylacetic acid (DOPAC), homovanillic acid (HVA), noradrenaline, serotonin and 5-hydroxyindoleacetic acid (5-HIAA) were determined according to the published protocol, and are reported as mean ± standard deviation of each group [40]. Prism version 5 (GraphPad Software, San Diego, CA, USA) was used for the statistical analyses and for the preparation of graphical presentations. Data were analysed by one-way analysis of variance (ANOVA) across all groups, and were subsequently subjected to the Dunnett’s post-hoc test to determine statistical differences between the means. A p-value of <0.05 indicates a statistically significant difference.

[6] = Ionisation constant (pKa) by potentiometric titration; type: physicochemical
Procedure: The prodrug was titrated in 0.1 mL increments and the pH was recorded after each addition. A total of 1 mL KOH was added to fully neutralise the primary amine group of the prodrug. The results were subsequently tabulated according to the method described in literature, and the pKa value was calculated.

[7] = Plasma stability, rat plasma; type: in vitro ADME; conditions: 37 °C, approx. 200 µM spiked
Procedure: as §3, §4

[8] = Tissue stability, rat liver homogenate; type: in vitro ADME; conditions: 37 °C
Procedure: as §3, §4

[9] = parameters: method as in PMID 19930170; conditions: mice; oral administration of L-dopa and carbidopa; cited from earlier work
[10] = parameters: method as in PMID 20646792; conditions: after oral administration of L-dopa prodrugs to rats; cited from earlier work
[11] = PAMPA, 5 h, 200 µM
Procedure: as §6, §7

[12] = cited from earlier work
brain MAO-B = conditions: cited from earlier work

Procedure for physchem: as §5

N[C@@H](Cc1ccc(O)c(O)c1)C(=O)NCCNC(=O)c1ccc(Cl)cn1 [L-dopa–lazabemide prodrug]
percentage of viable cells remaining (HeLa cells): 34.9 ± 7.94%
viability at 24 h, 1 µM (MTT cell viability assay): 112 ± 12%
viability at 24 h, 10 µM (MTT cell viability assay): 52.1 ± 14%
viability at 24 h, 100 µM (MTT cell viability assay): 35%
prodrug concentration remaining ([1]; 17 h): 64 to 68 µM
stability in plasma ([1]; up to 8 h): stable
logD ([2]; n-octanol/potassium phosphate buffer, pH 7.4, LogD, pH 7.4): 0.199 ± 0.002
logD ([2]; n-octanol/potassium phosphate buffer, pH 7.8, LogD, pH 7.8): 0.319 ± 0.003
logD ([2]; pH 6.4): < 0
logD ([2]; pH 6.4, listed as Prodrug): –4.58 ± 0.002
Papp at 5 h, 200 µM (in vitro; pH 3.7): 0.00955 ×10⁻⁶ cm/s
Papp at 5 h, 200 µM (in vitro; pH 4.7): 0.0155 ×10⁻⁶ cm/s
Papp at 5 h, 200 µM (in vitro; pH 5.7): 0.0195 ×10⁻⁶ cm/s
Papp at 5 h, 200 µM (in vitro; pH 6.4): 0.0195 ×10⁻⁶ cm/s
Papp at 5 h, 200 µM (in vitro; pH 7.4): 0.0295 ×10⁻⁶ cm/s
Papp at 5 h, 200 µM (in vitro; pH 7.8): 0.0468 ×10⁻⁶ cm/s
chemical stability in aqueous buffer ([3]; pH 3.7–7.4, up to 11 h): stable
prodrug concentration remaining ([3]; pH 7.8, 11 h, relative to first injection): 90.3%
solubility at 24 h ([4]; aqueous buffer, potassium phosphate buffer pH 7.4, 6000 μg/mL theoretical, 24 h, read-out: Solubility, Amount Measured): 6140 ± 730 µg/mL (≈ 16.2 mM)
solubility at 24 h ([4]; water, 6000 μg/mL theoretical, 24 h, read-out: Solubility, Amount Measured): 6280 ± 747 µg/mL (≈ 16.6 mM)
solubility at 24 h ([4]; water and potassium phosphate buffer, aqueous buffer, water and buffer pH 7.4, read-out: minimum solubility): ≥ 6000 µg/mL
striatal DOPAC levels ([5]; 63.5 µmol/kg intraperitoneal, 60 min, vs saline): significant reduction
striatal serotonin and 5-HIAA levels ([5]; 63.5 µmol/kg oral gavage or ip, 60 min): not altered
striatal dopamine levels ([5]; 63.5 µmol/kg oral gavage or ip, 60 min, vs saline): does not enhance
concentration reached in the brain [5]: too low to be reliably detected
pKa ([6]; amine group, titration with KOH in water): 7.25 ± 0.16
fraction existing as neutral uncharged species ([6]; pH 5.5): 1–2%
fraction existing as neutral uncharged species ([6]; pH 7.4): approximately 59%
prodrug concentration remaining ([7]; 17 h): 70.5 µM
stability in plasma ([7]; up to 8 h): relatively stable
half-life at 200 µM ([8]; approximate, read-out: t½): ~1 h
prodrug remaining ([8]; 4 h incubation): 37%

N[C@@H](Cc1ccc(O)c(O)c1)C(=O)O [L-Dopa]
percentage of viable cells remaining (HeLa cells): 79.3 ± 13.0%
viability at 24 h, 1 µM (MTT cell viability assay): 102 ± 4.19%
viability at 24 h, 10 µM (MTT cell viability assay): 105 ± 5.24%
viability at 24 h, 100 µM (MTT cell viability assay): 79%
time to peak plasma levels [9]: 30 to 60 min
plasma half-life of L-dopa [10]: 0.85 to 1.62 h
Papp at 5 h, 200 µM (in vitro; pH 3.7): 0.0102 ×10⁻⁶ cm/s
Papp at 5 h, 200 µM (in vitro; pH 4.7): 0.00891 ×10⁻⁶ cm/s
Papp at 5 h, 200 µM (in vitro; pH 5.7): 0.00603 ×10⁻⁶ cm/s
Papp at 5 h, 200 µM (in vitro; pH 6.4): 0.0024 ×10⁻⁶ cm/s
Papp at 5 h, 200 µM (in vitro; pH 7.4): 0.00676 ×10⁻⁶ cm/s
Papp at 5 h, 200 µM (in vitro; pH 7.8): 0.00275 ×10⁻⁶ cm/s
logPe [11]: smaller than −7.99
half-life [12]: approximately 90 min
fraction of the administered oral dose reaching the brain unchanged ([12]; oral, estimated): less than 1%
concentration reached in the brain [5]: too low to be reliably detected

NCCNC(=O)c1ccc(Cl)cn1 [Lazabemide]
Papp at 5 h, 200 µM (in vitro; pH 3.7): 0.0427 ×10⁻⁶ cm/s
Papp at 5 h, 200 µM (in vitro; pH 4.7): 0.0871 ×10⁻⁶ cm/s
Papp at 5 h, 200 µM (in vitro; pH 5.7): 0.148 ×10⁻⁶ cm/s
Papp at 5 h, 200 µM (in vitro; pH 6.4): 0.355 ×10⁻⁶ cm/s
Papp at 5 h, 200 µM (in vitro; pH 7.4): 1.62 ×10⁻⁶ cm/s
Papp at 5 h, 200 µM (in vitro; pH 7.8): 2.14 ×10⁻⁶ cm/s
concentration reached in the brain [5]: too low to be reliably detected
logD (physchem; pH 6.4, LogD): -1.18
logD (physchem; pH 7.4, LogD): -0.68
logD (physchem; pH 7.8, LogD): -0.63
time for enzyme activity to return to baseline after drug discontinuation (brain MAO-B; MAO-B): ≤ 36 h
inhibition of brain MAO-B (brain MAO-B; at least 0.4 mg/kg every 12 h, patients with early Parkinson’s disease): > 90%
